In patent US8829167B2, “Foliamangiferosides, preparation method and use thereof” (Tianjin University of Traditional Chinese Medicine, priority 2009, dated 2014):

Biological target: T1, α-glucosidase derived from rat intestines (Rattus norvegicus, UniProt P23739)
T1 construct: The brush border membrane is scraped; from tissue; host or cells: Wistar male rat jejunum, brush border membrane (crude preparation)
Test: α-glucosidase inhibiting activity (sucrose hydrolysis by rat intestinal brush border crude enzyme, glucose assay kit)
Type: biochemical
Settings: for inhibition of the conversion of sucrose into glucose under the catalysis of α-glucosidase in intestines (in words): in vitro; for Inhibition ratio: sucrose substrate, 37° C., 30 min
Method: The research process of α-glucosidase inhibiting activity: A Wistar male rat (body weight: about 200 g) is sacrificed by decapitation. The jejunum is taken out. The brush border membrane is scraped and then mixed into 0.1 M maleic acid buffer solution (pH 6.0). The mixture is used as α-glucosidase crude enzyme. 50 uL of sample solution dissolved in 2.5% DMSO is added into 100 uL of […] sucrosebase solution, into which 50 uL of the α-glucosidase solution derived from rat intestines is added. The mixture is reacted for 30 minutes at 37° C. before adding 800 uL of water and placing into boiling water bath for 2 minutes to be inactivated. The amount of the glucose produced is assayed with glucose assay kits.
Preparation of Sample Solution Group
0.1 M of maleic acid aqueous solution is mixed with 0.1 M of sodium maleate aqueous solution. The mixture is adjusted to pH 6.0 and is used as 0.1 M of maleic acid buffer solution. A sample is dissolved into DMSO solution and diluted 10 times with 0.1 M of maleic acid buffer solution. A sample solution is obtained and ready to use.
Sample group: The group in which a sample is added according to the experimental procedure described above (the samples are foliamangiferoside A (obtained in example 1) and foliamangiferoside B (obtained in example 2)); Control group: The group in which 2.5% DMSO solution is added according to the experimental procedure described above; Blank group: The type and amount of the agents are the same with those in sample group except that 800 uL of water is added immediately after 50 uL of the α-glucosidase solution derived from rat intestines is added, then the mixture is placed into a boiling water bath for 2 minutes to conduct inactivation. Furthermore, the similar experiments are conducted with ethanolic extracts of mango leaves (the product obtained in step 1 of example 1).
The following equation is used to calculate the inhibition ratio (%): inhibition ratio (%)=(A−B)/(A−C)*100
wherein, A is the absorbance of control group, B is the absorbance of sample group and C is the absorbance of blank group.

T1 sequence (P23739 whole entry): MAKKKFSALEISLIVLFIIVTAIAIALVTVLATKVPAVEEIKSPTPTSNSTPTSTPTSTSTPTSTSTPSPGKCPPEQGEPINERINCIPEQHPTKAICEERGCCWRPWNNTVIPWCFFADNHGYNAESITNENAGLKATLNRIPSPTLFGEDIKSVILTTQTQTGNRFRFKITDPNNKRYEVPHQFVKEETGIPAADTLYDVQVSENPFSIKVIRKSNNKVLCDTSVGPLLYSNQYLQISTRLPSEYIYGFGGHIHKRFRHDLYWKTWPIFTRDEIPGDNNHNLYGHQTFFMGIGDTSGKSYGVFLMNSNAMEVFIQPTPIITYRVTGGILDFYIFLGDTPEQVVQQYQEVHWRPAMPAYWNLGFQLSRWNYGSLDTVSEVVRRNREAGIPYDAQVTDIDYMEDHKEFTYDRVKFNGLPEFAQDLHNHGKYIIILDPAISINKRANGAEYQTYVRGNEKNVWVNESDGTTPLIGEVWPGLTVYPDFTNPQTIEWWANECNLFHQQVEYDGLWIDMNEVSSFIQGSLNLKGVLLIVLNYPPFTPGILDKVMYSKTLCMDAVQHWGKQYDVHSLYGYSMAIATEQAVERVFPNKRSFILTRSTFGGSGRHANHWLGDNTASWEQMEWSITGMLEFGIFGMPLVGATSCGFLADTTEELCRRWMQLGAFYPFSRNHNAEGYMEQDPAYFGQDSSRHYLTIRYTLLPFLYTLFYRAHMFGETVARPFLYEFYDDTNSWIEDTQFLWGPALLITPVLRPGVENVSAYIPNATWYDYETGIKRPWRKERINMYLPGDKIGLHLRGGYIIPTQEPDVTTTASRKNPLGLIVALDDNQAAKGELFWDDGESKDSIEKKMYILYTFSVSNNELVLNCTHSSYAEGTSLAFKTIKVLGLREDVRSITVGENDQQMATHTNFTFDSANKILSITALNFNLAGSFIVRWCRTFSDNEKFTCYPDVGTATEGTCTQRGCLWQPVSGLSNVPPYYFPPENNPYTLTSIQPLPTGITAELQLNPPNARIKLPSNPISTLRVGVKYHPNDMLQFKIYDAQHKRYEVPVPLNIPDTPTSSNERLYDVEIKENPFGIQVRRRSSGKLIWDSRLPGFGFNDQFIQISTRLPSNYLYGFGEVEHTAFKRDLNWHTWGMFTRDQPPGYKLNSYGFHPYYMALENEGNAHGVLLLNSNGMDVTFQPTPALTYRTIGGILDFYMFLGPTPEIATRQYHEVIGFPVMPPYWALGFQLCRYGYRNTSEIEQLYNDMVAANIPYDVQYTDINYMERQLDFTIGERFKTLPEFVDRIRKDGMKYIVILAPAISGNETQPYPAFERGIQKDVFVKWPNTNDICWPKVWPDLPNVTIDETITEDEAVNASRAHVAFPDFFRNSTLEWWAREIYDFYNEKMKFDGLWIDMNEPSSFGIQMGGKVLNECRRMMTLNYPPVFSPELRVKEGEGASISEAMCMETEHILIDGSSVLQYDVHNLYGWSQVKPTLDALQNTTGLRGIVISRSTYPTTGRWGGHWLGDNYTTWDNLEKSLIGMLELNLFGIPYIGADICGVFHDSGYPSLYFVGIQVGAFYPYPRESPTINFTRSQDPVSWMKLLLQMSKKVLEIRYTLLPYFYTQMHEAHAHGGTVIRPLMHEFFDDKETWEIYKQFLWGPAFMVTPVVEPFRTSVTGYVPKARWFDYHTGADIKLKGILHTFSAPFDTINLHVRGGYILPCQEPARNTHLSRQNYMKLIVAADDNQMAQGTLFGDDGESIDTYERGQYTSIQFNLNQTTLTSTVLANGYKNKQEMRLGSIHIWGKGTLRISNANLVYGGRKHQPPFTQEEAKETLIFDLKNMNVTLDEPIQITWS

inhibition of the conversion of sucrose into glucose under the catalysis of α-glucosidase in intestines (in words)	Sample group Conc. of glucose hydrolyzed (sample 50 uM) [mg/dL]	Inhibition ratio (sample 50 uM) [%]	Sample group Conc. of glucose hydrolyzed (sample 100 uM) [mg/dL]	Inhibition ratio (sample 100 uM) [%]	Sample group Conc. of glucose hydrolyzed (sample 200 uM) [mg/dL]	Inhibition ratio (sample 200 uM) [%]	Sample group Conc. of glucose hydrolyzed (sample 400 uM) [mg/dL]	Inhibition ratio (sample 400 uM) [%]	Inhibition ratio (sample 400 uM, listed as foliamangiferoside A) [%]	Inhibition ratio (sample 400 uM, listed as foliamangiferoside B) [%]	Structure (SMILES)
can effectively inhibit	5.23	15.8	4.64	20.2	4.12	26.2	3.09	58.2	58.2	–	COc1cc(O)c(C(=O)c2ccc(O)cc2)c(O)c1[C@@H]1O[C@H](CO)[C@@H](O)[C@H](O)[C@H]1O [Foliamangiferoside A, foliamangiferoside A]
can effectively inhibit	5.23	19.6	4.64	23.9	4.12	29.6	3.71	45.6	–	45.6	COc1cc(C(=O)c2c(O)cc(OC)c([C@@H]3OC(CO)[C@@H](O)C(O)C3O)c2O)ccc1O (some centres unmarked) [Foliamangiferoside B, foliamangiferoside B]
